From patent US20220104481A1, “CRYOPRESERVATION OF STEM CELLS” (TiGenix, S.A.U., priority 2019, published 2022)

system: ASCs; experiment: MTS assay after post-thaw seeding of ASCs pretreated with compounds prior to freezing; format: cell-based, human; details: 24 hours pretreatment before freezing (LY294 10 μM, sc79 10 μM, Exendin-4 20 nM)
Protocol: ASCs from donor A were thawed by warming the vials in a 37° C. bath and diluting the freezing medium containing DMSO with fresh complete DMEM (DMEM/F-12 media—GlutaMAX™-I, Gibco, supplemented with 100 μg/mL penicillin/streptomycin and 10% FBS). Cells were centrifuged at 450 g for 6 minutes at room temperature to eliminate leftover DMSO and plated in T-175 flasks at 20.000 cells/cm^2 in complete DMEM.
A 600 mM stock of NAC (SIGMA) was prepared in Milli-Q water (Millipore). This stock was used for pre-treatment and post-treatment by adding directly 50 μL stock solution per well into 5 mL of medium, making a final concentration of 6 mM. For 2 mM, only 16.7 μL were added per well, and in the case of 12 mM, 100 μL of stock were added. DMSO was used as the vehicle for sc79 and LY294.
Following the pretreatment step, the medium was removed, the cells were washed with PBS and trypsinized using trypsin-EDTA 0.25% (ThermoFisher) for 8 minutes at 37° C. After trypsin inactivation with complete DMEM, cells were harvested and centrifuged prior to resuspension in freezing medium (FBS with 10% DMSO), and frozen into 500,000 or 1 million cells per vial and stored in liquid nitrogen for further use. Specifically, the cells were frozen at −80° C. for 24 hours in a Cool Cell® device (BioCision) and then transferred to a liquid nitrogen storage container. All experiments were performed in incubators and 37° C., 5% CO2.
[…] The CellTiter 96° Aqueous One Solution Cell Proliferation Assay is a colorimetric method for determining the number of viable cells. The CellTiter 96° Aqueous One Solution reagent contains a tetrazolium compound [3-(4,5-dimethylthiazol-2-yl)-5-(3-carboxymethoxyphenyl)-2-(4-sulfophenyl)-2H-tetrazolium, MTS] and an electron coupling reagent (phenazine ethosulfate; PES). The MTS tetrazolium compound is bioreduced by cells—presumably by NADPH or NADH produced by dehydrogenase enzymes in metabolically active cells—into a coloured formazan product that is soluble in tissue culture medium.
Briefly, 40 μL of the reagent was added to 200 μL of complete DMEM in each well and absorbance was measured after 2-3 hours at 490 nm using a […]. Each condition was measured in 6 technical repeats. The MTS assay results are presented as percentage of absorbance at 490 nm relative to the non-treated (NT) cells.

Compound | effect of pre-treatment on post-thaw cell number
O=c1cc(N2CCOCC2)oc2c(-c3ccccc3)cccc12 [LY294] | did not show reproducible effects on cell number
CCOC(=O)C1=C(N)Oc2ccc(Cl)cc2C1C(C#N)C(=O)OCC (stereo not shown) [sc79] | did not show reproducible effects on cell number
Exendin-4 | did not show reproducible effects on cell number
IL6: pre-treatment assessed in addition to NAC; no concentration given | did not show reproducible effects on cell number
